Patent publication US12492173B2, “Herbicidal substituted N-tetrazolyl aryl carboxamides” (Bayer Aktiengesellschaft, priority 2019, dated 2025)

What was measured:
Type in all cases: in vivo
Veronica persica [1] = assay: Pre-emergence herbicidal action, VERPE; conditions: dosage 320 g/ha, scored visually after 3 weeks vs untreated controls (100% = plants have died)
In short: (§1)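 Greenhouse pre-emergence test: formulated compound (WP or EC) applied in water to the soil covering sown seeds, 600–800 l/ha, 0.2% wetting agent. Scored visually in percent at 3 weeks versus untreated plants.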

Avena fatua = assay: Post-emergence herbicidal action, AVEFA; parameters: key: % herbicidal action vs untreated; 100 = plants died, 0 = like control
In short: (§2)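 Values are visual estimates of herbicidal action, from 0% (as untreated) to 100% (dead), made about 3 weeks after plants at one-leaf stage in sandy loam were sprayed with the formulated compound.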

Pharbitis purpurea = assay: Post-emergence herbicidal action, PHBPU
In short: as §2

Amaranthus retroflexus = assay: Pre-emergence herbicidal action, AMARE; conditions: dosage 320 g/ha, scored visually after 3 weeks vs untreated controls (100% = plants have died)
In short: as §1

Veronica persica [2] = assay: Post-emergence herbicidal action, VERPE; parameters: key: % herbicidal action vs untreated; 100 = plants died, 0 = like control
In short: as §2

Setaria viridis = assay: Pre-emergence herbicidal action, SETVI; conditions: dosage 320 g/ha, scored visually after 3 weeks vs untreated controls (100% = plants have died)
In short: as §1

Compound: CCCn1nnnc1NC(=O)c1ccc(C(F)(F)F)c(C[S+](C)[O-])c1Br (stereo not drawn) [Example 3-381]
- herbicidal activity VERPE (Veronica persica [1]): 100%
- herbicidal action AVEFA (Avena fatua; post-emergence, dosage 80 g/ha): 100%
- herbicidal action PHBPU (Pharbitis purpurea; post-emergence, dosage 80 g/ha): 100%
- herbicidal activity AMARE (Amaranthus retroflexus): 100%
- herbicidal action VERPE (Veronica persica [2]; post-emergence, dosage 80 g/ha): 100%
- herbicidal activity SETVI (Setaria viridis): 90%

Compound: CCn1nnnc1NC(=O)c1ccc(C(F)F)c(CSC)c1C [Example 2-107]
- herbicidal activity VERPE (Veronica persica [1]): 100%
- herbicidal action AVEFA (Avena fatua; Dosage 80 g/ha): 80
- herbicidal action PHBPU (Pharbitis purpurea; Dosage 80 g/ha): 90
- herbicidal activity AMARE (Amaranthus retroflexus): 100%
- herbicidal action VERPE (Veronica persica [2]; Dosage 80 g/ha): 100
- herbicidal activity SETVI (Setaria viridis): 100%

Compound: CCCn1nnnc1NC(=O)c1ccc(C(F)(F)F)c(CSC)c1Br [Example 3-380]
- herbicidal activity VERPE (Veronica persica [1]): 90%
- herbicidal action AVEFA (Avena fatua; Dosage 80 g/ha): 100
- herbicidal action PHBPU (Pharbitis purpurea; Dosage 80 g/ha): 90
- herbicidal activity AMARE (Amaranthus retroflexus): 100%
- herbicidal action VERPE (Veronica persica [2]; Dosage 80 g/ha): 80
- herbicidal activity SETVI (Setaria viridis): 100%

Compound: CCn1nnnc1NC(=O)c1ccc(C(F)(F)F)c(CS(C)(=O)=O)c1OC [Example 2-136]
- herbicidal activity VERPE (Veronica persica [1]): 100%
- herbicidal action AVEFA (Avena fatua; Dosage 80 g/ha): 100
- herbicidal action PHBPU (Pharbitis purpurea; Dosage 80 g/ha): 90
- herbicidal activity AMARE (Amaranthus retroflexus): 100%
- herbicidal action VERPE (Veronica persica [2]; Dosage 80 g/ha): 100
- herbicidal activity SETVI (Setaria viridis): 80%

Compound: Cc1c(C(=O)Nc2nnnn2C)ccc(C(F)(F)F)c1CS(C)(=O)=O [Example 1-85]
- herbicidal activity VERPE (Veronica persica [1]): 100%
- herbicidal action AVEFA (Avena fatua; Dosage 80 g/ha): 80
- herbicidal action PHBPU (Pharbitis purpurea; Dosage 80 g/ha): 100
- herbicidal activity AMARE (Amaranthus retroflexus): 100%
- herbicidal action VERPE (Veronica persica [2]; Dosage 80 g/ha): 100
- herbicidal activity SETVI (Setaria viridis): 100%

Compound: CCSCc1c(C(F)F)ccc(C(=O)Nc2nnnn2C)c1SCC [Example 1-191]
- herbicidal activity VERPE (Veronica persica [1]): 100%
- herbicidal action AVEFA (Avena fatua; Dosage 80 g/ha): 80
- herbicidal action PHBPU (Pharbitis purpurea; Dosage 80 g/ha): 80
- herbicidal activity AMARE (Amaranthus retroflexus): 100%
- herbicidal action VERPE (Veronica persica [2]; Dosage 80 g/ha): 100
- herbicidal activity SETVI (Setaria viridis): 100%

Compound: CSCc1c(C(F)F)ccc(C(=O)Nc2nnnn2C)c1C [Example 1-107, 4-(difluoromethyl)-2-methyl-3-[(methylsulfanyl)methyl]-N-(1-methyl-1H-tetrazol-5-yl)benzamide]
- herbicidal activity VERPE (Veronica persica [1]): 100%
- herbicidal action AVEFA (Avena fatua; Dosage 80 g/ha): 80
- herbicidal action PHBPU (Pharbitis purpurea; Dosage 80 g/ha): 80
- herbicidal activity AMARE (Amaranthus retroflexus): 100%
- herbicidal action VERPE (Veronica persica [2]; Dosage 80 g/ha): 100
- herbicidal activity SETVI (Setaria viridis): 100%

Compound: CCCn1nnnc1NC(=O)c1ccc(C(F)F)c(CSC)c1Cl [Example 3-320]
- herbicidal activity VERPE (Veronica persica [1]): 100%
- herbicidal action AVEFA (Avena fatua; Dosage 80 g/ha): 90
- herbicidal action PHBPU (Pharbitis purpurea; Dosage 80 g/ha): 90
- herbicidal activity AMARE (Amaranthus retroflexus): 100%
- herbicidal action VERPE (Veronica persica [2]; Dosage 80 g/ha): 100
- herbicidal activity SETVI (Setaria viridis): 100%
